Patent US10988792B2, “Methods for antimicrobial resistance determination” (bioMerieux, Inc., priority 2009, dated 2021)

Tests used:
S. aureus D14906 (MRSA) = experiment: BOCILLIN-FL metabolic labeling (culturing cells with BOCILLIN-FL); format: binding
Method: (§1) Two experimental approaches were used to test BOCILLIN™-FL (Molecular Probes, Invitrogen) binding to S. aureus: (1) treating cells with sodium hydroxide (NaOH), neutralizing, adding BOCILLIN™-FL, then separating the cells (harsh pretreatment); and (2) culturing cells with BOCILLIN™-FL, then separating the cells (metabolic labeling).
(§2) For the second method, the two bacterial suspensions (13 ml) were mixed with BOCILLIN™-FL (175 μl of 1.0 mg/ml stock). The mixtures were aliquoted in 1.0 ml samples into microfuge tubes containing 0.2 ml of oil blend. The tubes were incubated at 37° C. for various time-points (keeping 1 set of tubes on ice for the T0 time-point). One set of tubes was removed at 30 minutes and the cells separated from free BOCILLIN™-FL by washing twice with PBS. One set of tubes was removed at 30, 52, 68, and 86 minutes and the cells separated from free BOCILLIN™-FL by centrifugation through the oil blend. The cells were recovered and resuspended in 3 ml PBS. The samples were scanned in the FluoroLog-3 system at an excitation wavelength of 490 nm and the fluorescence emission at 510 nm was recorded.

[1] = test system: S. aureus ATCC 25923 (MSSA); experiment: as above; format: binding; settings: for MSSA/MRSA Ratio: MSSA (25923)/MRSA (D14906); for BOCILLIN-FL binding, fluorescence emission at 510 nm (excitation 490 nm), raw data: MSSA (25923)
Method: as §1, §2

[2] = 30′ at 37° C., washed x 2 (PBS)

**Q.** With Cc1cc(C)n2c1C=C1C=CC(CCC(=O)Nc3ccc(OCC(=O)N[C@@H]4C(=O)N5[C@@H]4SC(C)(C)[C@@H]5C(=O)[O-])cc3)=[N+]1[B-]2(F)F.[Na+] [BOCILLIN™-FL] as the compound, how does the “BOCILLIN-FL binding, fluorescence emission at 510 nm (excitation 490 nm), raw data” value (shortened to “BOCILLIN-FL binding”) (S. aureus D14906 (MRSA); 30′ at 37° C., separation Oil) read?
**A.** 326.790

**Q.** What about the “BOCILLIN-FL binding” value (S. aureus D14906 (MRSA); [2]) of the same compound?
**A.** 206,250

**Q.** And the “BOCILLIN-FL binding” value (S. aureus D14906 (MRSA); 52′ at 37° C., separation Oil)?
**A.** 363,000

**Q.** And the “BOCILLIN-FL binding” value (S. aureus D14906 (MRSA); 68′ at 37° C., separation Oil)?
**A.** 346,270

**Q.** And the “BOCILLIN-FL binding” value (S. aureus D14906 (MRSA); 86′ at 37° C., separation Oil)?
**A.** 510,150

**Q.** And the “BOCILLIN-FL binding” value (S. aureus D14906 (MRSA); T0 (ice), separation Oil)?
**A.** 1,163,240

**Q.** And the “BOCILLIN-FL bound by the MRSA strain, less than the MSSA strain, per cell basis” value ([1]; BOCILLIN-FL signal normalized to the microbial tryptophan signal (FIG. 1))?
**A.** 3-4 fold

**Q.** What about the “MSSA/MRSA Ratio” value ([1]; 30′ at 37° C., separation Oil) of the same compound?
**A.** 5.60

**Q.** And the “MSSA/MRSA Ratio” value [1, 2]?
**A.** 2.00

**Q.** What about the “MSSA/MRSA Ratio” value ([1]; 52′ at 37° C., separation Oil) of the same compound?
**A.** 5.35

**Q.** And the “MSSA/MRSA Ratio” value ([1]; 68′ at 37° C., separation Oil)?
**A.** 7.17

**Q.** And the “MSSA/MRSA Ratio” value ([1]; 86′ at 37° C., separation Oil)?
**A.** 4.48

**Q.** What about the “MSSA/MRSA Ratio” value ([1]; T0 (ice), separation Oil) of the same compound?
**A.** 2.36

**Q.** And the “BOCILLIN-FL binding” value ([1]; 30′ at 37° C., separation Oil)?
**A.** 1,831,790

**Q.** And the “BOCILLIN-FL binding” value [1, 2]?
**A.** 410,830

**Q.** And the “BOCILLIN-FL binding” value ([1]; 52′ at 37° C., separation Oil)?
**A.** 1,941,930

**Q.** And the “BOCILLIN-FL binding” value ([1]; 68′ at 37° C., separation Oil)?
**A.** 2,481,450

**Q.** And the “BOCILLIN-FL binding” value ([1]; 86′ at 37° C., separation Oil)?
**A.** 2,285,980

**Q.** What about the “BOCILLIN-FL binding” value ([1]; T0 (ice), separation Oil) of the same compound?
**A.** 2,745,600

**Q.** And the “BOCILLIN-FL bound by the MRSA strain, less than the MSSA strain” value ([1]; raw data (Table 2), metabolic labeling)?
**A.** 2-7 fold
